# Test results: patent US20260166182A1, “CYANINE-BASED FLUOROPHORES” (The General Hospital Corporation, priority 2022, published 2026)
# “Also recorded” adds a separate entry of the source.
# Columns and labels:
# [1] = Optical study in EtOH, DMSO, HEPES and PBS; format: physicochemical
# Description: (§1) Optical Study, Photostability, Physicochemical Properties, and DFT Calculation: 1 mM stock solution in DMSO of the synthesized fluorophores was prepared before starting any spectral measurement. Optical properties for the synthesized fluorophores were measured in four different solvents (EtOH, DMSO, HEPES, and PBS). Absorbance spectra were measured in a Varian Cary 50 absorbance spectrophotometer (190-1100 nm). Fluorescence emission and photostability were measured and emission spectra were recorded on a Shimadzu RF-5301PC spectrofluorometer. Physicochemical properties (Log D, molecular mass, TPSA, H bond D/A, polarizability, molecular volume, and rotatable bonds) were predicted by ChemAxon (JChem plugin). Theoretical calculations of frontier molecular orbitals (FMOs) for the optimized structures of selected fluorophores were calculated based on DFT calculations at the B3LYP/6-311G(d,p) level.
# In vivo success of a contrast agent can depend on the absorption and emission profiles, molar extinction coefficient, quantum yield, molecular brightness, physicochemical properties, and photochemical stability. Different types of polymethine bridges can have an impact on the structural geometry of the fluorophores and the absorption and emission profiles. Optical properties were measured in polar protic EtOH, polar aprotic DMSO, and two buffer solutions, phosphate-buffered saline (PBS, PH ˜7.4) and 4-(2-hydroxyethyl)-1-piperazine-ethanesulfonic acid (HEPES, PH ˜7.4). Organic solvents such as ethanol (EtOH) and dimethyl sulfoxide (DMSO) are often used in spectroscopic experiments to observe the absorption and emission maximum, whereas buffer solvents PBS and HEPES were used to mimic the biological environment, as these synthesized fluorophores are intended to be used in bioimaging. The absorbance profiles of these fluorophores were recorded at various concentrations (0.8, 1.6, 2.4, 3.2, 4.0 μM) and the absorbance values obtained were plotted against each of the concentrations. […] Fluorophores 18-21 refer to the labels in Example 4 and FIG. 7D.
# The molar extinction coefficient is an intrinsic property of any fluorophore and can be important for high image resolution. […] These properties vary with the structure change and are difficult to predict beforehand. The optical properties of the synthesized fluorophores were measured in various media. All measurements were performed in 2 different organic solvents (EtOH and DMSO) and 2 different buffer (HEPES and PBS), and ICG was used as a reference (ΦICG=0.043).
# [2] = Photostability under xenon lamp irradiation; format: physicochemical; details: 2 h
# Description: as §1
# In consideration of theranostic (therapeutics and diagnostic) applications, NIR cyanine fluorophores are synthesized for fluorescence imaging, photodynamic therapy (PDT), photothermal therapy (PTT), optoacoustic imaging, and cancer immunotherapy. One of the approaches before using these fluorophores in those applications is to study their biodistribution and clearance pattern in vivo. […] The power density of 150 W is much higher than the required power for fluorescence imaging, considering that the time it takes for a fluorophore to clear from the background and accumulate in sufficient quantities in the targeted tissues is unknown. […] By considering this, an aliquot of the stock solution (1 mM in DMSO) was diluted in ethanol, and the fluorescence intensity was measured at the excitation wavelength same as their absorption maxima (nm). Photodegradation rates were measured every 20 min intervals for the selected fluorophores based on the % reduced fluorescence intensity starting from 100%. […] The data were collected in every 20 min intervals under continuous irradiation with a xenon lamp at 150 W for 2 h and presented based on the % reduced fluorescence intensity starting from 100%. […]
# LLC and Raw264.7 cells = test: In vitro inhibition study of SH1 cellular uptake; format: cell-based; details: 2 μM SH1, 15 min
# Description: In vitro inhibition study: LLC and Raw264.7 cells were seeded and incubated at a density of 20,000 cells/plate in a 24-well plate. […] Cells were then incubated with 2 μM of SH1 at 37° C. for 15 min. […] After washing twice with HBSS buffer, the cells were imaged using a Nikon TE2000 epifluorescence microscope (TE2000U; Nikon) equipped with a 75-W xenon light source, NIR-compatible optics, and a NIR-compatible 4×, 10×, and 20× Plan Fluor objective lens (Nikon, Melville, NY) with a customized filter set.
# [3] = tested on: lung carcinoma (LLC cell line); test: NIR-II fluorescence imaging of subcutaneous LLC tumor-bearing C57BL/6 mice; format: in vivo, mouse
# Description: General NIR-II fluorescence imaging: A 640×512-pixel InGaAs camera (Ninox640, Raptor Photonics) and macro zoom lens (0-10×; Navitar Zoom 7000 with SWIR coating) along with 900, 1070, 1100, and 1200 nm long-pass (LP) filters from either Thorlab or Edmund optics were used to collect the NIR-II signal. InGaAs camera played a role as an open-air imaging system along with the support of the FLARE system. An 808 nm fiber-coupled diode laser ([…] at the sample) was used as an excitation source. Data acquisition was done using in-house developed software. […] Mice were imaged with intact skin using InGaAs camera. At least 3 mice were analyzed for each sample. Tumor-bearing mouse models: Animals were housed in an AAALAC-certified facility and were studied under the protocols approved by the MGH IACUC (2016N000136). Mice were maintained under anesthesia with isoflurane and oxygen during the experiment. To establish the various tumor-bearing mouse models including lung carcinoma, pancreatic ductal adenocarcinoma (PDAC), and triple negative breast adenocarcinoma, eight-week-old C57BL/6 mice (Taconic Farms, Germantown, NY) were subcutaneously injected with 2×10^5 LLC, Pan02, and E0771 cells suspended in DMEM/Matrigel (100 μL, 50 v/v %) in the flank region, respectively. Female C57BL/6 mice were used for the breast cancer (E0771) model, otherwise male mice were used. […] Statistical analysis: The fluorescence and background intensities of a region of interest over each tissue were quantified using customized imaging software and ImageJ v1.48 (National Institutes of Health, Bethesda, MD). The signal-to-background ratio (SBR) was calculated as SBR=fluorescence/background, where background was the fluorescence intensity of muscle. Data were reported as mean±s.e.m. with a minimum of three biological replicates. Student's t-test statistical analysis was performed to evaluate the significance of the experimental data. The differences among groups were determined using one-way ANOVA analysis to assess the statistical differences among more than two groups. […] The data was indicated with *p<0.05, ** p<0.01, *** p<0.001, and **** p<0.0001.
# [4] = In vivo biodistribution study of NIR fluorophores in CD-1 mice; parameters: species or system mouse; details: 25 nmol intravenous, 4 h post-injection
# Description: In Vivo Biodistribution Study of NIR Fluorophores: Under the supervision of the MGH IACUC, animals were housed in an AAALAC-certified facility and studied according to institutional protocol #2016N000136. In preparation for injection, CD-1 mice (25-30 g, 6 weeks, Charles River Laboratories, Wilmington, MA) were anesthetized with isoflurane and oxygen. A 10 mM stock solution of NIR fluorophores was prepared in DMSO, and 25 nmol of each molecule was diluted in BSA-containing saline (5 wt/v %) for intraoperative imaging. After 4 h post-injection, mice were imaged. For each experiment, camera exposure time and image normalization were held constant.
# Quantitative Analysis: The fluorescence and background intensity of a region of interest (ROI) over each tissue was quantified using ImageJ software (NIH, Bethesda, MD) version 1.45q. The signal-to-background ratio (SBR) was calculated as SBR=fluorescence/background, where background is the signal intensity of neighboring tissues such as muscle. All NIR fluorescence images for a particular fluorophore were normalized identically for all conditions of an experiment.
smiles,measurement,setting,value
"CC1(C)C(/C=C/C2=C(Cl)C(=C/C=C3/N(CCCc4ccccc4)c4ccc(Cl)cc4C3(C)C)/CCC2)=[N+](CCCc2ccccc2)c2ccc(Cl)cc21.[Br-] [fluorophore 19, 5-Chloro-2-((E)-2-((E)-2-chloro-3-(2-((E)-5-chloro-3,3-dimethyl-1-(3-phenylpropyl)indolin-2-ylidene)ethylidene)cyclohex-1-en-1-yl)vinyl)-3,3-dimethyl-1-(3-phenylpropyl)-3H-indol-1-ium Bromide]",emission wavelength,[1]; DMSO,817 nm
same,photodegradation (% reduced fluorescence intensity),[2],7-12%
"O=C1OC(c2ccc(O)c(S(=O)(=O)O)c2)(c2ccc(O)c(S(=O)(=O)O)c2)c2c(Br)c(Br)c(Br)c(Br)c21 [bromosulphophthalein, bromsulphthalein]",effect of inhibitor pretreatment on SH1 cellular uptake,LLC and Raw264.7 cells,"Neither bromosulphophthalein, cyclosporin A (both OATP inhibitors), D22 (OCT inhibitor), nor MK-571 (ABC transporter inhibitor) significantly inhibited SH1 uptake"
"CCCCN1/C(=C/C=C/C=C/C=C/C2=[N+](CCCC)c3ccc(Cl)cc3C2(C)C)C(C)(C)c2cc(Cl)ccc21 [SH2, 1-butyl-2-((1E,3E,5E)-7-((E)-1-butyl-5-chloro-3,3-dimethylindolin-2-ylidene)hepta-1,3,5-trien-1-yl)-5-chloro-3,3-dimethyl-3H-indol-1-ium iodide]",NIR-II signal intensity of abdominal and dissected tumor image,[3]; NIR-II region,low signal intensity in NIR-II region
CN(C)C(=O)CCSC(SCCC(=O)O)c1cccc(/C=C/c2ccc3ccc(Cl)cc3n2)c1 (stereo not drawn) [MK-571],effect of inhibitor pretreatment on SH1 cellular uptake,LLC and Raw264.7 cells,"Neither bromosulphophthalein, cyclosporin A (both OATP inhibitors), D22 (OCT inhibitor), nor MK-571 (ABC transporter inhibitor) significantly inhibited SH1 uptake"
"CCCCN1/C(=C/C=C2\CCCC(/C=C/C3=[N+](CCCC)c4ccccc4C3(C)C)=C2Cl)C(C)(C)c2ccccc21 [SH21, 1-butyl-2-((E)-2-((E)-3-(2-((E)-1-butyl-3,3-dimethylindolin-2-ylidene)ethylidene)-2-chlorocyclohex-1-en-1-yl)vinyl)-3,3-dimethyl-3H-indol-1-ium iodide]",circulation in the blood stream,[3]; 48 h post-injection,circulating in the blood stream at 48 h post injection
same,quantum yield,[1]; EtOH,0.33
same,quantum yield,[1]; PBS,0.01
same,molecular brightness,[1]; highest observed,"79,664 cm^−1 M^−1"
same,tissue/organ signals,[4],high background signals; also recorded: higher background tissue uptake
O=C1NC(=NS(=O)(=O)c2cccc3ccccc23)S/C1=C\c1ccc(Br)cc1 [Pitstop 2],effect of inhibitor pretreatment on SH1 cellular uptake,LLC and Raw264.7 cells,did not result in any appreciable change in cellular uptake
O=C(N/N=C/c1cc(O)c(O)cc1O)c1cc2ccccc2cc1O [dingo 4a],effect of inhibitor pretreatment on SH1 cellular uptake,LLC and Raw264.7 cells,significantly inhibited the internalization
"CCN1/C(=C/c2ccc3ccccc3[n+]2CC)C=Cc2ccccc21.[I-] [D22, 1,1′-Diethyl-2,2′-cyanine iodide]",effect of inhibitor pretreatment on SH1 cellular uptake,LLC and Raw264.7 cells,"Neither bromosulphophthalein, cyclosporin A (both OATP inhibitors), D22 (OCT inhibitor), nor MK-571 (ABC transporter inhibitor) significantly inhibited SH1 uptake"
"CCCCN1/C(=C/C=C2\CCCC(/C=C/C3=[N+](CCCC)c4ccc(Br)cc4C3(C)C)=C2Cl)C(C)(C)c2cc(Br)ccc21.[I-] [fluorophore 20, 5-Bromo-2-((E)-2-((E)-3-(2-((E)-5-bromo-1-butyl-3,3-dimethylindolin-2-ylidene)ethylidene)-2-chlorocyclohex-1-en-1-yl)vinyl)-1-butyl-3,3-dimethyl-3H-indol-1-ium Iodide]",quantum yield,[1]; PBS,0.01
same,tissue/organ signals,[4],high signals in the primary and secondary lymphoid tissues
